The values below come from PubChem BioAssay (NCI).

SMILES strings stand for the structures. Several values for one entry are separate records, joined by “and”; a condition that tells them apart may be missing. Equal entries are not always repeated.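 The compound was tested at five concentrations on cells cultured in 96-well plates, with a 48-hour exposure period. The concentration for 50% growth inhibition is given as GI50. TGI: total growth inhibition.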 A value given as a limit tells only on which side of the number the result lay.

Usually GI50 stands for the concentration that inhibits growth by half. For orientation: TGI means the concentration giving total growth inhibition. A high value points to less potent growth arrest.

The test system of the first experiment is A498 renal. As to the kind of experiment: DTP human tumour cell line panel, 48 h.
Consider `O=C(Nc1ccc(OC(F)(F)Cl)cc1)c1cnc(N2CC[C@@H](O)C2)c(-c2ccn[nH]2)c1`, for which the GI50 is 14.8 µM and the total growth inhibition concentration (TGI) is 31.2 µM.
In turn, `NC(N)=NCCCC(NCc1c2ccccc2nc2ccccc12)C(=O)O` (centres undefined) showed a concentration for total growth inhibition (TGI) of more than 100 µM.
Still for that read-out and setting: in the case of `CC(=O)O[C@H]1CC2C(C3CC[C@H](C(C)CCC(=O)O)[C@]31C)[C@H](OC(C)=O)C[C@@H]1CC3(CC[C@]21C)OOC1(CCC(C)CC1)OO3` (some centres undefined) it was 28.6 µM and 29.8 µM.
Take `Cc1cnc(C(=O)NNc2nc3sc4c(c3c(=O)[nH]2)C(C)CCC4)cn1` (centres undefined): the GI50 was 2.84 µM and the TGI was found to be 16.8 µM.
In turn, `O=C1c2ccccc2C(=O)c2c(NC3CCCCC3)ccc(Nc3ccc(S(=O)(=O)O)cc3)c21` returned a TGI of more than 100 µM.
Regarding `CN(C)c1ccc(-c2cc(-c3ccc(Nc4nc(Nc5ccc(Cl)cc5)nc(Nc5ccc(Cl)cc5)n4)cc3)nc(N)c2C#N)cc1`, the GI50 is 6.41 µM and the TGI is more than 100 µM.
With `COc1ccc(C(O)c2cc3c(N)c(C(=O)Nc4cccc5ccccc45)sc3nc2C)cc1` (centres undefined), the GI50 was 0.2 µM and the total growth inhibition concentration (TGI) came to 0.676 µM.
Take `O=C(COc1ccc(/C=C2\Oc3ccccc3C2=O)cc1)Nc1nc2ccccc2s1`: the GI50 was 37.1 µM and the TGI is 94.5 µM.
As for `Cc1cc(Br)c(NC(=O)c2c(-c3c(Cl)cccc3Cl)noc2C)c(Br)c1`, the GI50 was more than 100 µM and the concentration for total growth inhibition (TGI) was more than 100 µM.
As for `OCCCCC#Cc1ccccc1C#Cc1cccc(C(F)(F)F)c1`, the GI50 was 18.2 µM and the TGI amounted to 33.1 µM.
For the compound `CC(C)[C@@H]1CC[C@]2(CO2)[C@@H]2C(=O)OCC(C(=O)O)=C[C@H]21`, the GI50 is 0.203 µM and the TGI worked out at 0.738 µM.
Regarding `Cn1c(=O)c2nc3sc4c(n3c2n(C)c1=O)C(=O)c1ccccc1C4=O`, the concentration for total growth inhibition (TGI) is more than 100 µM.
On to `COc1ccc(/C=C2\CCC/C(=C\c3ccc(OC)c(OC)c3)C2=O)cc1OC`, for which the GI50 is 3.88 µM and the TGI was more than 32.5 µM.

Another experiment deals with BT-549 breast. Kind of experiment: DTP human tumour cell line panel, 48 h.
For the compound `O=C(Nc1ccc(OC(F)(F)Cl)cc1)c1cnc(N2CC[C@@H](O)C2)c(-c2ccn[nH]2)c1`, the GI50 was 10.6 µM and the TGI was found to be 24.7 µM.
For the compound `NC(N)=NCCCC(NCc1c2ccccc2nc2ccccc12)C(=O)O` (centres undefined), the TGI was more than 100 µM.
On the same count and under the same terms, in the case of `CC(=O)O[C@H]1CC2C(C3CC[C@H](C(C)CCC(=O)O)[C@]31C)[C@H](OC(C)=O)C[C@@H]1CC3(CC[C@]21C)OOC1(CCC(C)CC1)OO3` (some centres undefined) it was 15.1 µM and 7.14 µM.
In the case of `Cc1cnc(C(=O)NNc2nc3sc4c(c3c(=O)[nH]2)C(C)CCC4)cn1` (centres undefined), the GI50 was 2.08 µM and the TGI was more than 100 µM.
Regarding `O=C1c2ccccc2C(=O)c2c(NC3CCCCC3)ccc(Nc3ccc(S(=O)(=O)O)cc3)c21`, the TGI was more than 100 µM.
Take `CN(C)c1ccc(-c2cc(-c3ccc(Nc4nc(Nc5ccc(Cl)cc5)nc(Nc5ccc(Cl)cc5)n4)cc3)nc(N)c2C#N)cc1`: the GI50 is 71.2 µM and the TGI was more than 100 µM.
In the case of `COc1ccc(C(O)c2cc3c(N)c(C(=O)Nc4cccc5ccccc45)sc3nc2C)cc1` (centres undefined), the GI50 was 0.385 µM.
On to `O=C(COc1ccc(/C=C2\Oc3ccccc3C2=O)cc1)Nc1nc2ccccc2s1`, for which the GI50 was 6.67 µM and the TGI is more than 80.5 µM.
The corresponding values for `Cc1cc(Br)c(NC(=O)c2c(-c3c(Cl)cccc3Cl)noc2C)c(Br)c1` are more than 100 µM and more than 100 µM.
Taken in the same sequence, the figures for `OCCCCC#Cc1ccccc1C#Cc1cccc(C(F)(F)F)c1` were 16.4 µM and 30.7 µM.
The corresponding values for `CC(C)[C@@H]1CC[C@]2(CO2)[C@@H]2C(=O)OCC(C(=O)O)=C[C@H]21` are 0.286 µM and 0.851 µM.
For the compound `Cn1c(=O)c2nc3sc4c(n3c2n(C)c1=O)C(=O)c1ccccc1C4=O`, the TGI is more than 61.5 µM.
For `COc1ccc(/C=C2\CCC/C(=C\c3ccc(OC)c(OC)c3)C2=O)cc1OC`, the GI50 was 1.7 µM and the TGI is more than 32.5 µM.

Another experiment deals with CCRF-CEM leukemia. As to the kind of experiment: DTP human tumour cell line panel, 48 h.
Take `O=C(Nc1ccc(OC(F)(F)Cl)cc1)c1cnc(N2CC[C@@H](O)C2)c(-c2ccn[nH]2)c1`: the GI50 was 11.3 µM and the TGI is 43.2 µM.
As for `NC(N)=NCCCC(NCc1c2ccccc2nc2ccccc12)C(=O)O` (centres undefined), the TGI came to 75.1 µM.
For `CC(=O)O[C@H]1CC2C(C3CC[C@H](C(C)CCC(=O)O)[C@]31C)[C@H](OC(C)=O)C[C@@H]1CC3(CC[C@]21C)OOC1(CCC(C)CC1)OO3` (some centres undefined), the TGI was 5.26 µM and 4.09 µM.
With `Cc1cnc(C(=O)NNc2nc3sc4c(c3c(=O)[nH]2)C(C)CCC4)cn1` (centres undefined), the GI50 was 0.671 µM and the TGI is more than 100 µM.
`O=C1c2ccccc2C(=O)c2c(NC3CCCCC3)ccc(Nc3ccc(S(=O)(=O)O)cc3)c21` showed a TGI of more than 100 µM.
With `CN(C)c1ccc(-c2cc(-c3ccc(Nc4nc(Nc5ccc(Cl)cc5)nc(Nc5ccc(Cl)cc5)n4)cc3)nc(N)c2C#N)cc1`, the GI50 is 2.59 µM and the TGI is 36.5 µM.
Taken in the same sequence, the figures for `COc1ccc(C(O)c2cc3c(N)c(C(=O)Nc4cccc5ccccc45)sc3nc2C)cc1` (centres undefined) were 0.378 µM and more than 100 µM.
Turning to `O=C(COc1ccc(/C=C2\Oc3ccccc3C2=O)cc1)Nc1nc2ccccc2s1`, the GI50 is 0.17 µM and the TGI worked out at 0.332 µM.
Consider `Cc1cc(Br)c(NC(=O)c2c(-c3c(Cl)cccc3Cl)noc2C)c(Br)c1`, for which the GI50 is more than 100 µM and the TGI was more than 100 µM.
Take `OCCCCC#Cc1ccccc1C#Cc1cccc(C(F)(F)F)c1`: the GI50 is 20.2 µM and the TGI was found to be 38.2 µM.
On to `CC(C)[C@@H]1CC[C@]2(CO2)[C@@H]2C(=O)OCC(C(=O)O)=C[C@H]21`, for which the GI50 is 0.319 µM and the TGI is 2.85 µM.
As for `Cn1c(=O)c2nc3sc4c(n3c2n(C)c1=O)C(=O)c1ccccc1C4=O`, the TGI was more than 50.3 µM.
In the case of `COc1ccc(/C=C2\CCC/C(=C\c3ccc(OC)c(OC)c3)C2=O)cc1OC`, the GI50 is 1.49 µM and the TGI was more than 32.5 µM.

A further experiment concerns EKVX NSCLC. As to the kind of experiment: DTP human tumour cell line panel, 48 h.
As to `O=C(Nc1ccc(OC(F)(F)Cl)cc1)c1cnc(N2CC[C@@H](O)C2)c(-c2ccn[nH]2)c1`, the GI50 is 8.63 µM and the TGI is 28.7 µM.
With `NC(N)=NCCCC(NCc1c2ccccc2nc2ccccc12)C(=O)O` (centres undefined), the TGI is more than 100 µM.
The same measure, in the same setting: the result for `CC(=O)O[C@H]1CC2C(C3CC[C@H](C(C)CCC(=O)O)[C@]31C)[C@H](OC(C)=O)C[C@@H]1CC3(CC[C@]21C)OOC1(CCC(C)CC1)OO3` (some centres undefined) reads 4.9 µM and 2.9 µM.
Turning to `Cc1cnc(C(=O)NNc2nc3sc4c(c3c(=O)[nH]2)C(C)CCC4)cn1` (centres undefined), the GI50 was 1.19 µM and the TGI was 78.2 µM.
In the case of `O=C1c2ccccc2C(=O)c2c(NC3CCCCC3)ccc(Nc3ccc(S(=O)(=O)O)cc3)c21`, the TGI stood at 64.4 µM.
Consider `CN(C)c1ccc(-c2cc(-c3ccc(Nc4nc(Nc5ccc(Cl)cc5)nc(Nc5ccc(Cl)cc5)n4)cc3)nc(N)c2C#N)cc1`, for which the GI50 is more than 100 µM and the concentration for total growth inhibition (TGI) was more than 100 µM.
As to `COc1ccc(C(O)c2cc3c(N)c(C(=O)Nc4cccc5ccccc45)sc3nc2C)cc1` (centres undefined), the GI50 was 0.486 µM and the TGI is more than 100 µM.
As to `O=C(COc1ccc(/C=C2\Oc3ccccc3C2=O)cc1)Nc1nc2ccccc2s1`, the GI50 was 26.5 µM and the concentration for total growth inhibition (TGI) is more than 100 µM.
The corresponding values for `Cc1cc(Br)c(NC(=O)c2c(-c3c(Cl)cccc3Cl)noc2C)c(Br)c1` are more than 100 µM and more than 100 µM.
The corresponding values for `OCCCCC#Cc1ccccc1C#Cc1cccc(C(F)(F)F)c1` are 17.9 µM and 34.7 µM.
`CC(C)[C@@H]1CC[C@]2(CO2)[C@@H]2C(=O)OCC(C(=O)O)=C[C@H]21`: the GI50 is 5.17 µM and the TGI was more than 100 µM.
In turn, `Cn1c(=O)c2nc3sc4c(n3c2n(C)c1=O)C(=O)c1ccccc1C4=O` came in with a TGI of more than 100 µM.
As to `COc1ccc(/C=C2\CCC/C(=C\c3ccc(OC)c(OC)c3)C2=O)cc1OC`, the GI50 was 14 µM and the TGI is more than 32.5 µM.

In a further experiment the test system is HOP-62 NSCLC. As to the kind of experiment: DTP human tumour cell line panel, 48 h.
As to `O=C(Nc1ccc(OC(F)(F)Cl)cc1)c1cnc(N2CC[C@@H](O)C2)c(-c2ccn[nH]2)c1`, the GI50 is 11.4 µM and the total growth inhibition concentration (TGI) came out at 28.4 µM.
Regarding `NC(N)=NCCCC(NCc1c2ccccc2nc2ccccc12)C(=O)O` (centres undefined), the TGI was more than 100 µM.
Still for that read-out and setting: the result for `CC(=O)O[C@H]1CC2C(C3CC[C@H](C(C)CCC(=O)O)[C@]31C)[C@H](OC(C)=O)C[C@@H]1CC3(CC[C@]21C)OOC1(CCC(C)CC1)OO3` (some centres undefined) reads 7.39 µM and 3.49 µM.
For the compound `Cc1cnc(C(=O)NNc2nc3sc4c(c3c(=O)[nH]2)C(C)CCC4)cn1` (centres undefined), the GI50 is 0.273 µM and the TGI is 17.5 µM.
The compound `O=C1c2ccccc2C(=O)c2c(NC3CCCCC3)ccc(Nc3ccc(S(=O)(=O)O)cc3)c21` returned a TGI of more than 100 µM.
Regarding `CN(C)c1ccc(-c2cc(-c3ccc(Nc4nc(Nc5ccc(Cl)cc5)nc(Nc5ccc(Cl)cc5)n4)cc3)nc(N)c2C#N)cc1`, the GI50 was more than 100 µM and the TGI was more than 100 µM.
On to `COc1ccc(C(O)c2cc3c(N)c(C(=O)Nc4cccc5ccccc45)sc3nc2C)cc1` (centres undefined), for which the GI50 is 1.27 µM and the TGI is more than 100 µM.
`O=C(COc1ccc(/C=C2\Oc3ccccc3C2=O)cc1)Nc1nc2ccccc2s1`: the GI50 is more than 69.4 µM and the TGI is more than 100 µM.
As to `Cc1cc(Br)c(NC(=O)c2c(-c3c(Cl)cccc3Cl)noc2C)c(Br)c1`, the GI50 is 30.8 µM and the TGI is more than 100 µM.
For the compound `OCCCCC#Cc1ccccc1C#Cc1cccc(C(F)(F)F)c1`, the GI50 was 16.9 µM and the TGI stood at 33.3 µM.
Take `CC(C)[C@@H]1CC[C@]2(CO2)[C@@H]2C(=O)OCC(C(=O)O)=C[C@H]21`: the GI50 is 0.35 µM and the TGI turned out to be 6.94 µM.
In turn, `Cn1c(=O)c2nc3sc4c(n3c2n(C)c1=O)C(=O)c1ccccc1C4=O` displayed a total growth inhibition concentration (TGI) of more than 53.3 µM.
As for `COc1ccc(/C=C2\CCC/C(=C\c3ccc(OC)c(OC)c3)C2=O)cc1OC`, the GI50 is 4.59 µM and the TGI was more than 32.5 µM.
